Test results reported in patent publication US20220267394A1, “COMPOUNDS FOR INDUCING TISSUE FORMATION AND USES THEREOF” (HISTIDE AG, priority 2015, published 2022).
Where no end group is shown, it is not given here.

Test system: hMSCs
Assay: Loss of stemness: STRO-1 expression by immunostaining
Assay type: cell-based, human
Description: The cells were first fixed for 20 min with 4% paraformaldehyde/PBS at 4° C. After fixation, the cells were permeabilized in PBS containing 1% Triton X-100 for 15 min. Runx2, Osterix, Stro-1, Vinculin, Phalloidin, Osteopontin, Sox2, Sox9 antibodies were visualized by treating the cells with 1% (v/v) specific monoclonal antibodies for 1 hour at 37° C. Then the samples were incubated with Alexa Fluor® 568 or 647 (F(ab′)2 fragment of IgG(H+L)) during 30 min at room temperature. The cell nuclei were counterstained in 20 ng/mL DAPI for 10 min at room temperature.
For this type of quantification the freeware image analysis ImageJ® software was used. The raw image was first converted to an 8-bit file, and then the unsharp mask feature was used (settings 1:0.2) to remove the image background (rolling ball radius 10). After smoothing, the resulting image, which appears similar to the original photomicrograph but with minimal background, was then converted to a binary image by setting a threshold. Threshold values were determined empirically by selecting a setting, which gave the most accurate binary image for a subset of randomly selected photomicrographs. The cell area was determined by manual delineation on raw fluorescent images. Total contact area and mean contact area per cell were calculated by “analyse particules” in ImageJ®. A minimum of 30 cells per condition were analyzed. Stro-1, CD-34+, and CD-105 expressions were determined using this procedure.
hMSCs were cultured on conventional cell culture plastic plates with or without the presence in the cell culture media of different GFR-binding compounds as described herein (SEQ ID NO: 50 to 88) in solution. […] This was probed by Stro-1 immunostaining after cell fixation as described in the Methods section. The quantification of Stro-1 positive contact numbers and areas was performed as described in the Methods section. A minimum of 30 cells per condition were analyzed. Stro-1 positive marrow cells are multipotential and capable of differentiating into multiple mesenchymal lineages including stromal cells with a phenotype resembling vascular smooth muscle cells that can support hematopoiesis, adipocytes, osteoblasts, and chondrocytes.
Using the method detailed in the description, the RMSD of 57 previously reported peptide sequences have been determined (Table 6) and correlated with the expression of STRO-1 in solution. […] One should note that it is commonly admitted that the expression of STRO-1 in a cell is indicative of a cell that is in a substantially non-differentiated state and the decrease of its expression of at least about 20% is indicative of a cell that has started a process of differentiation but which may not result in the differentiation of the cell. A decrease of more than 50% would be indicative of the presence of a significant shift towards a differentiated state. A decrease of more than 70% would be indicative of the presence of a very important shift towards a differentiated state. A sustained decrease (e.g. for at least 96 h) of more than 50% or 70% would be indicative of the presence of an even more important shift towards a differentiated state.
Likewise, using the method detailed in the description, the RMSD of 75 GFR-binding peptide sequence representatives of the invention have been determined (Table 8) and correlated with the expression of STRO-1. SEQ ID NO: 1 to 49 were tested in combination with a bioactive carrier as defined above in the Examples Section (i.e. titanium, ceramics, collagen, etc. . . . ), whereas SEQ ID NO: 2242 to 2267 were tested in solution.

[1] = Table 8, SEQ ID NO: 1 to 49 tested in combination with a bioactive carrier (titanium, ceramics, collagen, etc.)
[2] = Table 6, previously reported peptides in solution, 400 ng/mL
[3] = Table 8, SEQ ID NO: 2242 to 2267 tested in solution

Row | Substance | STRO-1 expression (%) [1] [%] | STRO-1 expression (%) [2] [%] | also measured
1 | 9 (CRNVQCRPTQVQLSAISTLYLEIVRKKPLKNYQTLEDH; GFR-binding peptide) [compound 9] | 19 |  | 
2 | 2193 (DKPEESSSTPTHAQCICSSLSEAIVSSVLSTRLVLSQISLTRAKRAFE; Peptide reported in US20130333061, SEQ ID NO:139889) [compound 2193] |  | 87 | 
3 | 2208 (AETLHTLGLSAPVIESAISDAI; Peptide reported in WO2013040142, SEQ ID NO:629725) [compound 2208] |  | 93 | 
4 | 2249 (TPTSSSPINTLYFDDMGVPTYGKIPSSVVD; GFR-binding peptide) [compound 2249] |  |  | STRO-1 expression (%) [3]: 25%
5 | 24 (GTPGPPSSAPTQLSATSVLYYDDSSNVILRKHRMIVKS; GFR-binding peptide) [compound 24] | 21 |  | 
6 | 32 (WWFWGKASSVPTELSPISTLYKDENEKVVLKYHYDMVVEGSGSR; not fully specified; ends and bridges not checked) [compound 32] | 21 |  | 
7 | 1 (CKVPKPSSAPTQLSAISTLYLDEYDKVVLKNYQNMVVRA; not fully specified; ends and bridges not checked) [compound 1] | 26 |  | 
8 | 12 (CKVPKASSVPTELSAISTLYLAAAALKNYQEM; GFR-binding peptide) [compound 12] | 28 |  | 
9 | 6 (CAVPKAXXAPTKLSATSVLYYDSSNNVVLRKHRNMVVK; GFR-binding peptide; MOD_RES (7), (8): Xaa is C or S) [compound 6] | 26 |  | 
10 | 13 (CSIPKASSVPTELSATSVLYYDEYDEKVVLRKHEMVVEG; not fully specified; ends and bridges not checked) [compound 13] | 23 |  | 
11 | 2180 (VPTKLSPISILYLDKGVVTYKFKYEGMSVAECGCR; Peptide reported in US8969040, SEQ ID NO:90) [compound 2180] |  | 80 | 
12 | 2253 (VPQQQEPLTTLYYDEYDKVVEQLSNQQVKS; GFR-binding peptide) [compound 2253] |  |  | STRO-1 expression (%) [3]: 18%
13 | 2250 (VPTVVSPISMLYIDDMGVPTYKQYEVVVVE; GFR-binding peptide) [compound 2250] |  |  | STRO-1 expression (%) [3]: 26%
14 | 2198 (APTKLNAISVLYFDDSSNVILKKYRNMIVKS; Peptide reported in US20120244575, SEQ ID NO:4530) [compound 2198] |  | 84 | 
15 | 2258 (SRVLLRPVQMRKIDKGVVTYKKATVLLEEH; GFR-binding peptide) [compound 2258] |  |  | STRO-1 expression (%) [3]: 21%
16 | 2166 (NEVLRFCGIQVPEGDEPLT; Peptide reported in WO2013040142, SEQ ID NO:101213) [compound 2166] |  | 98 | 
17 | 2177 (VPTKLEPISVLYKDDMGVPTLKYHYEGMAVSECGCR; Peptide reported in US8969040, SEQ ID NO:89) [compound 2177] |  | 81 | 
18 | 2260 (VPQRLEPLTILYYDAANNVVEQLSNDMVKS; GFR-binding peptide) [compound 2260] |  |  | STRO-1 expression (%) [3]: 23%
19 | 2197 (LSLLAPPEPVWNHETSYGSDCHVPTNVNAISKMIDKSNHQTG; Peptide reported in US20140130203, SEQ ID NO:119179) [compound 2197] |  | 93 | 
20 | 2165 (LMDLARMPSCLRGERAVPQDTTGYFTWSSNITPLNFIF; Peptide reported in US20110300149, SEQ ID NO:32) [compound 2165] |  | 92 | 
21 | 2205 (KIPKPSSAPTELSAISMLYC; Peptide reported in WO2009151288, SEQ ID NO:5) [compound 2205] |  | 80 | 
22 | 2161 (DPLPIIYYVGRNVRVEQLSNMVVRACKCS; Comparative sequence) [compound 2161] |  | 97 | 

Row | Substance | STRO-1 expression (%) [1] [%] | STRO-1 expression (%) [2] [%] | also measured
23 | 33 (WWFWGASSAVSQELSAISMLYLGGGLKNYQDMQHN; GFR-binding peptide) [compound 33] | 28 |  | 
24 | 17 (CASAAPSSVPQKLNAISMLYFVGRKPKVLKKYRMIVRS; not fully specified; ends and bridges not checked) [compound 17] | 21 |  | 
25 | 2158 (VEQLSNMVVK; Peptide reported in US20130259924, SEQ ID NO:21667) [compound 2158] |  | 98 | 
26 | 2171 (SHQSAGDSIKSPARHSAPTHQEPLPD; Peptide reported in WO2013040142, SEQ ID NO:3137100) [compound 2171] |  | 91 | 
27 | 2259 (TQVAARPVQTRKIDDMGVPTKKATVAAEDH; GFR-binding peptide) [compound 2259] |  |  | STRO-1 expression (%) [3]: 23%
28 | 2170 (NPGASASPCCVSQDLEPLPIL; Peptide reported in JP06025288, SEQ ID NO:8) [compound 2170] |  | 86 | 
29 | 2168 (MSRVLFEPLTFLQTGSGLPDEKTLG; Peptide reported in US20080081768, SEQ ID NO:28800) [compound 2168] |  | 94 | 
30 | 43 (CAAPASSSVPARLSPISILYIDAANNVVYKQYEDMVVEASG; not fully specified; ends and bridges not checked) [compound 43] | 27 |  | 
31 | 31 (GTPGPPKPSSAPTQLNAISMLYFGGGGGLKKYRDMQHN; GFR-binding peptide) [compound 31] | 31 |  | 
32 | 35 (GTPGPRNVQCRPTQVQLSAISTLYLAAALKNYQTLE; GFR-binding peptide) [compound 35] | 28 |  | 
33 | 19 (CPKPSSAPTQLSAISTLYLDDSSNVILKNYQMIVVRA; GFR-binding peptide) [compound 19] | 20 |  | 
34 | 2187 (SVPAVCSATSATGPYSTATNTVWPSIVATGGTT; Peptide reported in EP1687419, SEQ ID NO:43) [compound 2187] |  | 92 | 
35 | 2209 (MRTESTPTTASAISYECLWSPPSNEAAKLHFDS; Peptide reported in US20070083334, SEQ ID NO:966410) [compound 2209] |  | 94 | 
36 | 2163 (TPTYSRPVQKAELTR; Peptide reported in US20130332133, SEQ ID NO:16645) [compound 2163] |  | 97 | 
37 | 2190 (VHLLKPHAVPKACCAPTKLSATSVLYYDSSNNVILRKHRNMVVRACGCH; Peptide reported in US5688678, SEQ ID NO:8) [compound 2190] |  | 88 | 
38 | 2196 (MAAQDEWRDAITLTMGRDLKKVPQHLNAISVIDPVT; Peptide reported in US20120246748, SEQ ID NO:111359) [compound 2196] |  | 83 | 
39 | 2195 (MALPQPRGSSLSKAPVVVAPCMALKRVNIRSIVFEVLKTMNQNCIHETPN; Peptide reported in US20130333061, SEQ ID NO:158498) [compound 2195] |  | 82 | 
40 | 2182 (VPTELSPISLLYLDEFEKVTLKNYQDMVVDG; Peptide reported in US20120244575, SEQ ID NO:4324) [compound 2182] |  | 87 | 
41 | 2248 (VPTAAEPISMLYLDEYDKVVKFKYEAAAVS; GFR-binding peptide) [compound 2248] |  |  | STRO-1 expression (%) [3]: 26%
42 | 22 (WWFWGKVPKPSSAPTQLSAISTLYLDEYDKVVLKNYQNMVVR; not fully specified; ends and bridges not checked) [compound 22] | 17 |  | 
43 | 45 (CAAPASSSVPARLSPISLLYIDAANNVVYKQYEDM; not fully specified; ends and bridges not checked) [compound 45] | 24 |  | 
44 | 7 (CTVPKPXXAPTQLSPISVLYKDDSSNVILKYHYNMVVRAXGXH; GFR-binding peptide; MOD_RES (7), (8), (40), (42): Xaa is C or S) [compound 7] | 18 |  | 
